{"source": "patent US20100204277A1", "about": "“Compositions and Methods for Controlling Infestation” (HATCHTECH PTY LTD., priority 2007, published 2010)", "key": {"[1]": {"tested_on": "H. contortus eggs", "experiment": "Haemonchus contortus egg hatch", "assay_type": "in vivo", "settings": "180 and 18 ug/mL (equivalent to 1 and 0.1 mM); 48 hours at 25° C.", "protocol": "In an attempt to improve control of H. contortus the effects of the compound 5,5′-dimethyl-2,2′-dipyridyl was examined on H. contortus eggs. Eggs were recovered from the faeces of infected sheep using a standard sucrose floatation method. The eggs were corrected to a density of approximately 2,500 eggs per mL and were then exposed to varying concentrations of compound and incubated for 48 hours at 25° C. The eggs were then examined to determine the ovicidal efficacy of the compound in comparison to untreated control and a solvent only control.\nIn addition, the ovicidal efficacy of the compound 2-acetyl-1-tetralone was examined against H. contortus (FIG. 10). The same protocol was used as described for 5,5′-dimethyl-2,2′-dipyridyl."}, "[2]": {"tested_on": "Third stage H. contortus larvae", "experiment": "Survival of third stage H. contortus larvae (L3 to L4)", "assay_type": "in vivo, Haemonchus contortus", "protocol": "Third stage H. contortus larvae were exposed to varying concentrations of 5,5′-dimethyl-2,2′-dipyridyl and the effects on moulting from L3 to L4 examined. The larvae were either exsheathed (their L2 sheath was removed chemically) or unexsheathed (their L2 sheaths were intact). The larvae were exposed to varying concentrations of 5,5′-dimethyl-2,2′-dipyridyl added to their culture media of DMEM and the effects on larval survival monitored over time. Following a 30 minute incubation at 37° C., greater than 90% of the exsheathed larvae exposed to 1 and 0.5 mM of the compound appeared dead. […] By day six post exposure greater than 90% of the larvae appeared to have died in the treatment groups while the control larvae appeared healthy."}, "[3]": {"tested_on": "house dust mite", "experiment": "House dust mite counts on treated filter paper", "assay_type": "in vivo, Dermatophagoides spp", "settings": "per replicate; for 2 week count (mite count): 2 weeks at 25° C. and 75% RH", "protocol": "A filter paper (90 mm diameter) was taken and placed in a Petri dish of the same dimensions. The filter paper was then wetted throughout with the test compound, using a small air pump sprayer. The wetted filter paper was then allowed to dry in free flowing air. 200 mg dust mite medium, containing roughly 500 mites/g, was placed on the filter paper and the number of mites counted under a microscope. The arena was then left for 2 weeks on an incubator at 25° C. and 75% RH. After 2 weeks the number of mites in the arena was counted for a second time. This experiment was repeated 3 times with the test compound and a further 3 times using water as a control."}, "[4]": {"tested_on": "head lice eggs", "experiment": "Formulated compound on egg hatching in head lice", "assay_type": "in vivo", "settings": "20 mM formulation", "protocol": "Gravid female lice were permitted to lay eggs. The eggs were counted, inspected under a light microscope and all eggs that appeared undamaged were allocated to one of two treatment groups. One group was exposed to 5′-dimethyl-2,2′-dipyridyl in a formulation, while the second group was exposed to the formulation only. The protocol was as follows:\nTreatments: 5′-dimethyl-2,2′-dipyridyl (20 mM) n=10 • Vehicle control only n=10\nExposure time: 10 minutes\nWash time: 1 minute @˜37° C.\nIncubation: All eggs were placed at 31° C. in a humid incubator and monitored for signs of development specifically of the eyes and subsequent hatching, see Table 21."}, "[5]": {"tested_on": "Plutella xylostella eggs (Waite strain)", "experiment": "Reversal of ovicidal effect by added metal ions (FeSO4), Plutella eggs", "assay_type": "in vivo", "protocol": "(§1) Within 24 hours of collection the following experimental design was chosen. Batches of eggs were exposed to 10 mM 6,6′-dimethyl-2,2′-dipyridyl for 2 seconds while additional batches of eggs were exposed to the solvent only (Methanol) for 2 seconds. All batches of eggs were allowed to air dry for 20 minutes at room temperature. The eggs were then given a 2 second exposure to FeSO4 at either 10, 5 or 1 mM, air dried and put in the incubator at 24° C. and allowed to hatch over the next 6 days. In addition, a positive control of 10 mM 6,6′-dimethyl-2,2′-dipyridyl was set up in which eggs were exposed to this compound for 2 seconds, air dried and placed in the incubator.\nas §1, with “10 mM 5,5′-dimethyl-2,2′-dipyridyl for 2” for “10 mM 6,6′-dimethyl-2,2′-dipyridyl for 2”, “FeSO4 at 10, 5” for “FeSO4 at either 10, 5”, “put in an incubator at” for “put in the incubator at”, “of 10 mM, 5,5′-dimethyl-2,2′-dipyridyl was set” for “of 10 mM 6,6′-dimethyl-2,2′-dipyridyl was set”"}, "[6]": {"tested_on": "Plutella xylostella eggs (Waite strain)", "experiment": "Plutella xylostella egg hatch (egg dip)", "settings": "10 and 1 mM; cloth or parafilm", "procedure": "Several hundred Plutella xylostella eggs (Waite strain) were collected, that had been laid over a 24 hour period.\nThe egg masses were then placed in a humid box at 25° C. until egg hatch. Control eggs were exposed to absolute methanol as described above. At day 6 post laying the eggs were assessed from the different treatments and the percentage of egg hatch determined relative to the control as shown in Table 9.\nBatches of Plutella eggs that were laid on either fine cloth or parafilm were dipped in a specific inhibitor solution for between 2-10 seconds, the excess solution was drained by blotting with dry tissue paper. The egg masses were then placed in a humid box at 25 degrees until egg hatch. Control eggs were exposed to absolute methanol as described above or not treated. At day 6 post laying the eggs were assessed from the different treatments and the percentage of egg hatch determined relative to the controls as shown in Tables 10 and 11.\nThe egg masses were then placed in a humid box at 25 degrees until egg hatch. Control eggs were exposed to absolute ethanol as described above. On day 6 post laying the eggs were assessed from the different treatments and the percentage of egg hatch determined relative to the control."}}, "note": "Values joined by “and” are separate entries in the source; they are usually repeats but may differ in a detail not shown here. Equal entries are not always repeated."}
{"smiles": "Cc1ccc(-c2ccc(C)cn2)nc1", "note": "[5,5′-dimethyl-2,2′-dipyridyl]", "values": [{"measurement": "ovicidal efficacy on H. contortus eggs (FIG. 8)", "setting": "[1]", "result": "potently ovicidal"}, {"measurement": "appearance of unexsheathed larvae", "setting": "[2]; 10 μM, up to 6 days post exposure", "result": "appeared normal"}, {"measurement": "effects on unexsheathed larvae compared to control larvae", "setting": "[2]; up to 3 days post exposure", "result": "no adverse effects"}, {"measurement": "2 week count (mite count)", "setting": "[3]; listed as Test Compound", "result": "50 and 90"}, {"measurement": "2 week count (mite count)", "setting": "[3]; listed as Test compound", "result": 74}, {"measurement": "1 hour count (mite count)", "setting": "[3]; listed as Test Compound", "result": "61 and 104"}, {"measurement": "1 hour count (mite count)", "setting": "[3]; listed as Test compound", "result": 76}, {"measurement": "egg hatching in head lice", "setting": "[4]; 10 minutes exposure", "result": "significantly suppress"}, {"measurement": "eggs that failed to hatch", "setting": "[4]; the eggs other than the two that developed", "result": 80, "unit": "%"}, {"measurement": "% Inhibition relative to the FeSO4 controls", "setting": "[5]; 10 mM compound followed by 2 second exposure to 1 mM FeSO4", "result": 0, "unit": "%"}, {"measurement": "% Inhibition relative to the FeSO4 controls", "setting": "[5]; 10 mM compound followed by 2 second exposure to 5 mM FeSO4", "result": 0, "unit": "%"}, {"measurement": "% Inhibition relative to the FeSO4 controls", "setting": "[5]; 10 mM compound followed by 2 second exposure to 10 mM FeSO4", "result": 8, "unit": "%"}, {"measurement": "egg hatching of Plutella eggs (Tables 10 and 11)", "setting": "[6]", "result": "significantly inhibit"}]}
